Assay results published in the supplement of paper PMC10331698.
± gives the standard deviation of the averaged measurements.

Key:
Assay in all cases: level (log10 ratio to DMSO vehicle control); higher = higher biomarker level / cell amount than vehicle control
[1] = compound: C=C(C)C(=O)OCCC(F)(F)C(F)(F)C(F)(F)C(F)(F)C(F)(F)C(F)(F)C(F)(F)C(F)(F)F [8:2 Fluorotelomer methacrylate] (in DMSO)
Procedure: (§1)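 BioMAP Diversity Plus panel of 12 human primary cell co-culture systems (3C, 4H, LPS, SAg, BT, BF4T, BE3C, CASM3C, HDF3CGF, KF3CT, MyoF, Mphg). Compounds were added 1 h before stimulation and left for 24 h (MyoF 48 h; BT 72 h for soluble read-outs or 6 d for IgG). Biomarkers were read by ELISA, cytotoxicity by SRB, PBMC viability and proliferation by Alamar Blue. Each well value was divided by the mean of 8 DMSO control wells on the same plate and log10 transformed; duplicate blinded samples were tested at 4 concentrations.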

[2] = compound: CN(C(=O)C(F)(F)C(F)(F)C(F)(F)F)[Si](C)(C)C [N-Methyl-N-trimethylsilylheptafluorobutyramide] (in DMSO)
Procedure: as §1

[3] = compound: O=C(O)C=C(C(F)(F)F)C(F)(F)F [3,3-Bis(trifluoromethyl)-2-propenoic acid] (in DMSO)
Procedure: as §1

[4] = compound: O=S(=O)(O)C(F)(F)C(F)(F)C(F)(F)C(F)(F)C(F)(F)C(F)(F)C(F)(F)F [Perfluoroheptanesulfonic acid] (in DMSO)
Procedure: as §1

[5] = compound: OCC(F)(F)OC(F)(F)C(F)(F)OC(F)(F)C(F)(F)OC(F)(F)CO [1H,1H,11H,11H-Perfluorotetraethylene glycol] (in DMSO)
Procedure: as §1

[6] = compound: OCCC(F)(F)C(F)(F)C(F)(F)C(F)(F)F [4:2 Fluorotelomer alcohol] (in DMSO)
Procedure: as §1

Test System: BT:sIL-17F
- level (log10) ([1]; 6700 nM): 0.032 ± 0.037
- level (log10) ([1]; 20000 nM): 0.1 ± 0.023
- level (log10) ([2]; 6700 nM): -0.017 ± 0.027
- level (log10) ([2]; 20000 nM): -0.008 ± 0.13
- level (log10) ([2]; 60000 nM): 0.0005 ± 0.07
- level (log10) ([3]; 6700 nM): -0.258 ± 0.031
- level (log10) ([3]; 20000 nM): -0.426 ± 0.16
- level (log10) ([3]; 60000 nM): -0.672 ± 0.021
- level (log10) ([4]; 1500 nM): -0.0155 ± 0.096
- level (log10) ([4]; 4400 nM): 0.0185 ± 0.025
- level (log10) ([4]; 13000 nM): 0.0535 ± 0.064
- level (log10) ([4]; 40000 nM): -0.004 ± 0.067
- level (log10) ([5]; 6700 nM): -0.0185 ± 0.015
- level (log10) ([5]; 20000 nM): -0.176
- level (log10) ([5]; 60000 nM): -0.396 ± 0.044
- level (log10) ([6]; 6700 nM): 0.0025 ± 0.03
- level (log10) ([6]; 20000 nM): 0.075 ± 0.055
- level (log10) ([6]; 60000 nM): 0.0675 ± 0.14

Test System: 4H:CD106/VCAM-1
- level (log10) ([1]; 6700 nM): -0.035 ± 0.018
- level (log10) ([1]; 20000 nM): -0.0485 ± 0.0064
- level (log10) ([2]; 6700 nM): -0.011
- level (log10) ([2]; 20000 nM): -0.0305 ± 0.049
- level (log10) ([2]; 60000 nM): -0.023 ± 0.065
- level (log10) ([3]; 6700 nM): -0.12 ± 0.037
- level (log10) ([3]; 20000 nM): -0.143 ± 0.017
- level (log10) ([3]; 60000 nM): -0.25 ± 0.028
- level (log10) ([4]; 1500 nM): -0.002 ± 0.062
- level (log10) ([4]; 4400 nM): -0.029 ± 0.017
- level (log10) ([4]; 13000 nM): -0.0345 ± 0.019
- level (log10) ([4]; 40000 nM): -0.0295 ± 0.03
- level (log10) ([5]; 6700 nM): 0.0345 ± 0.011
- level (log10) ([5]; 20000 nM): -0.016 ± 0.011
- level (log10) ([5]; 60000 nM): -0.078 ± 0.016
- level (log10) ([6]; 6700 nM): -0.025 ± 0.023
- level (log10) ([6]; 20000 nM): -0.0105 ± 0.013
- level (log10) ([6]; 60000 nM): 0.0085 ± 0.0078

Test System: BE3C:CXCL8/IL-8
- level (log10) ([1]; 6700 nM): -0.002 ± 0.014
- level (log10) ([1]; 20000 nM): -0.008 ± 0.0028
- level (log10) ([2]; 6700 nM): 0.019 ± 0.054
- level (log10) ([2]; 20000 nM): 0.0175 ± 0.061
- level (log10) ([2]; 60000 nM): 0.055 ± 0.11
- level (log10) ([3]; 6700 nM): -0.016 ± 0.0042
- level (log10) ([3]; 20000 nM): -0.026 ± 0.0085
- level (log10) ([3]; 60000 nM): -0.0075 ± 0.04
- level (log10) ([4]; 1500 nM): 0.0105 ± 0.018
- level (log10) ([4]; 4400 nM): 0.02 ± 0.0099
- level (log10) ([4]; 13000 nM): 0.0405 ± 0.019
- level (log10) ([4]; 40000 nM): 0.0595 ± 0.057
- level (log10) ([5]; 6700 nM): -0.0165 ± 0.0035
- level (log10) ([5]; 20000 nM): -0.071 ± 0.033
- level (log10) ([5]; 60000 nM): -0.0405 ± 0.056
- level (log10) ([6]; 6700 nM): -0.001 ± 0.0085
- level (log10) ([6]; 20000 nM): -0.006 ± 0.0014
- level (log10) ([6]; 60000 nM): 0.043 ± 0.04

Test System: LPS:SRB
- level (log10) ([1]; 6700 nM): -0.0085 ± 0.016
- level (log10) ([1]; 20000 nM): -0.0005 ± 0.023
- level (log10) ([2]; 6700 nM): 0.0045 ± 0.012
- level (log10) ([2]; 20000 nM): 0.0045 ± 0.0078
- level (log10) ([2]; 60000 nM): 0 ± 0.0028
- level (log10) ([3]; 6700 nM): -0.006 ± 0.0071
- level (log10) ([3]; 20000 nM): -0.024 ± 0.0085
- level (log10) ([3]; 60000 nM): -0.044 ± 0.0057
- level (log10) ([4]; 1500 nM): -0.0105 ± 0.005
- level (log10) ([4]; 4400 nM): -0.0165 ± 0.0021
- level (log10) ([4]; 13000 nM): -0.002 ± 0.0085
- level (log10) ([4]; 40000 nM): 0.007 ± 0.02
- level (log10) ([5]; 6700 nM): -0.0175 ± 0.0078
- level (log10) ([5]; 20000 nM): -0.0255 ± 0.013
- level (log10) ([5]; 60000 nM): -0.086 ± 0.013
- level (log10) ([6]; 6700 nM): -0.012 ± 0.0057
- level (log10) ([6]; 20000 nM): -0.0145 ± 0.0092
- level (log10) ([6]; 60000 nM): -0.006 ± 0.0014

Test System: SAg:CCL2/MCP-1
- level (log10) ([1]; 6700 nM): 0.0005 ± 0.025
- level (log10) ([1]; 20000 nM): 0.003 ± 0.011
- level (log10) ([2]; 6700 nM): -0.0135 ± 0.0078
- level (log10) ([2]; 20000 nM): -0.012 ± 0.018
- level (log10) ([2]; 60000 nM): -0.0005 ± 0.026
- level (log10) ([3]; 6700 nM): -0.0145 ± 0.00071
- level (log10) ([3]; 20000 nM): -0.0535 ± 0.0078
- level (log10) ([3]; 60000 nM): -0.079 ± 0.042
- level (log10) ([4]; 1500 nM): -0.001 ± 0.031
- level (log10) ([4]; 4400 nM): -0.0345 ± 0.044
- level (log10) ([4]; 13000 nM): -0.024 ± 0.028
- level (log10) ([4]; 40000 nM): 0.031 ± 0.0071
- level (log10) ([5]; 6700 nM): -0.023 ± 0.038
- level (log10) ([5]; 20000 nM): -0.0395 ± 0.03
- level (log10) ([5]; 60000 nM): -0.094 ± 0.024
- level (log10) ([6]; 6700 nM): -0.009 ± 0.0014
- level (log10) ([6]; 20000 nM): 0.006 ± 0.025
- level (log10) ([6]; 60000 nM): 0.031 ± 0.089

Test System: BF4T:CD90
- level (log10) ([1]; 6700 nM): -0.0165 ± 0.015
- level (log10) ([1]; 20000 nM): 0 ± 0.0099
- level (log10) ([2]; 6700 nM): -0.0225 ± 0.022
- level (log10) ([2]; 20000 nM): -0.006 ± 0.0071
- level (log10) ([2]; 60000 nM): 0.0065 ± 0.005
- level (log10) ([3]; 6700 nM): -0.0205 ± 0.011
- level (log10) ([3]; 20000 nM): -0.022 ± 0.0042
- level (log10) ([3]; 60000 nM): -0.0235 ± 0.019
- level (log10) ([4]; 1500 nM): -0.004 ± 0.0014
- level (log10) ([4]; 4400 nM): -0.004
- level (log10) ([4]; 13000 nM): -0.027 ± 0.0085
- level (log10) ([4]; 40000 nM): -0.0205 ± 0.013
- level (log10) ([5]; 6700 nM): -0.005 ± 0.0042
- level (log10) ([5]; 20000 nM): -0.03 ± 0.0014
- level (log10) ([5]; 60000 nM): -0.071 ± 0.0085
- level (log10) ([6]; 6700 nM): -0.0285 ± 0.0078
- level (log10) ([6]; 20000 nM): -0.0085 ± 0.03
- level (log10) ([6]; 60000 nM): -0.0125 ± 0.0064

Test System: SAg:Proliferation
- level (log10) ([1]; 6700 nM): -0.0045 ± 0.053
- level (log10) ([1]; 20000 nM): 0.052 ± 0.0028
- level (log10) ([2]; 6700 nM): 0.0395 ± 0.015
- level (log10) ([2]; 20000 nM): 0.0565 ± 0.028
- level (log10) ([2]; 60000 nM): 0.0635 ± 0.088
- level (log10) ([3]; 6700 nM): 0.004 ± 0.0085
- level (log10) ([3]; 20000 nM): -0.0715 ± 0.022
- level (log10) ([3]; 60000 nM): -0.462 ± 0.032
- level (log10) ([4]; 1500 nM): 0.0105 ± 0.026
- level (log10) ([4]; 4400 nM): 0.0125 ± 0.029
- level (log10) ([4]; 13000 nM): -0.024 ± 0.037
- level (log10) ([4]; 40000 nM): 0.0325 ± 0.019
- level (log10) ([5]; 6700 nM): -0.0355 ± 0.074
- level (log10) ([5]; 20000 nM): -0.0455 ± 0.00071
- level (log10) ([5]; 60000 nM): -0.126 ± 0.016
- level (log10) ([6]; 6700 nM): -0.041 ± 0.042
- level (log10) ([6]; 20000 nM): -0.033 ± 0.0071
- level (log10) ([6]; 60000 nM): -0.0025 ± 0.032
